Assay results: publication PMC8545111, “Molecular Basis of the Versatile Regulatory Mechanism of HtrA-Type Protease AlgW from Pseudomonas aeruginosa” (mBio, 2021)
“And” between values parts separate entries of the source, which are not always exact repeats. Equal entries are not always repeated. Non-standard residues stand in square brackets, D forms with d. Residues, ends and D or L forms follow the SMILES beside them. *: point of attachment. pNA = O=[N+]([O-])c1ccc(N*)cc1; 2Abz = Nc1ccccc1C(=O)O

How the values were obtained:
AlgW [1] = test: AlgW activation by agonist gradient (agonists versus velocity), saturated Abz-VLAG-pNA; format: biochemical, Pseudomonas aeruginosa; conditions: 100 μM Abz-VLAG-pNA, 200 nM AlgW
Method: (§1) FIG 2 Determination of enzyme apparent kinetic parameters of dual-signal-activated AlgW. (A) Activity assay of tripeptide or decapeptide-activated AlgW using the quenched fluorescent substrates Abz-VLAG-pNA, Abz-TVAW-pNA, and Abz-AAAA-pNA. All assays were placed in a buffer containing 25 mM Tris (pH 7.5) and 150 mM NaCl at 37°C for 1 h by adding 100 μM substrate, 200 nM AlgW, and 10 mM agonist peptides (tripeptide WVF or decapeptide SVRDELRWVF). (B) The apparent Michaelis-Menten parameters of AlgW cleavage quenched fluorescent substrates Abz-VLAG-pNA (100 μM) under the condition of peptide or lipid activation. (C) The activity assay of peptide or DDM activated AlgW using the saturated quenched fluorescent substrates Abz-VLAG-pNA. Under the gradient of peptide or DDM concentration,100 μM substrate and 200 nM AlgW were coincubated with or without 400 μM DDM or 10 mM agonist peptides in a buffer containing 25 mM Tris (pH 7.5) and 150 mM NaCl at 37°C for 1 h. The final assay volume of all experiments was 100 μl, and the appearance of fluorescent products was monitored at 60-s intervals at fluorescence wavelengths of λex = 310 nm and λem = 420 nm. […] The Kcat for the AlgW trimer was calculated by Kcat = Vmax/(Etotal), (Etotal) = 200/3 nM trimers. […]
(§2) For the enzyme mechanism of AlgW (30–389) and mutants, two internally quenched fluorescent peptide substrates incorporating the peptidase cleavage site of MucA/MucB, Abz-VLAG-pNA and Abz-TVAW-pNA, were designed and synthesized (GL Biochem Shanghai Ltd., China). In the intact peptide, the fluorescence of the anthraniloyl group is quenched by the P-nitroaniline (Abz is a fluorogenic group, and pNA is a quencher of fluorescence). This quenched fluorescence is liberated upon cleavage of peptide by 200 nM AlgW and mutants (200/3 nM for trimer), resulting in increased fluorescence that can then be monitored fluorometrically. […] The fluorescent degradation products were monitored at 60-s intervals at fluorescence wavelength—λex = 310 nm, λem = 420 nm ([41]). […]

AlgW [2] = molecular target: T1, AlgW (Pseudomonas aeruginosa, UniProt Q9HVX1); test: Activation of 200 nM AlgW cleavage of 100 μM Abz-VLAG-pNA by a DDM gradient without agonist peptide, 25 mM Tris pH 7.5, 150 mM NaCl, 37°C, Hill-type fit.; format: biochemical; conditions: n = 3; read-out: Half-Maximal Activation concentration (μM), DDM gradient
T1 construct: soluble periplasmic region, residues 30-389, pET22b with PreScission-cleavable 6xHis; trimer
Method: as §1, with “Under the gradient of peptide or DDM concentration,100 μM substrate and 200 nM AlgW were coincubated with or without 400 μM DDM or 10 mM agonist peptides in a buffer containing 25 mM Tris (pH 7.5) and 150 mM NaCl at 37°C for 1 h.” left out
In the presence of a fixed amount of AlgW and saturated substrate, we measured the initial rates of AlgW at various concentrations of decapeptide or DDM (Fig. 2C). […]

AlgW [3] = test: Muc- protease degradation assay; format: biochemical, Pseudomonas aeruginosa; conditions: MucB 130 μM, AlgW 25 μM; lipid-A 100 μM, DDM 400 μM or decapeptide 100 μM; 25 mM Tris-HCl pH 7.5, 150 mM NaCl, 37°C; 30 min; gel bands
Method: (§3) FIG 1 Degradation of MucA and MucB by AlgW in response to the peptides and lipid signals. (A and B) MucB/RseB (130 μM) was cleaved by AlgW/DegS (25 μM) in the presence of different agonist combinations, including lipid-A (100 μM), lipid-like detergent DDM (400 μM), decapeptide SVRDELRWVF (100 μM), and decapeptide combined with lipid-A or DDM. (C and D) MucB/RseB-protected MucA^peri/RseA^peri degradation by AlgW/DegS in the presence of different lengths of the activating peptides in a time-dependent manner. MucA^peri (125 μM), AlgW (25 μM), MucB (130 μM), activation peptides (tripeptide WVF or decapeptide SVRDELRWVF, 100 μM), and lipid-A (100 μM) were incubated at 37°C in a time-dependent manner in buffer (25 mM Tris-HCl pH 7.5, 150 mM NaCl). Similarly, RseA^peri (125 μM) was cleaved by DegS (25 μM) in the presences of RseB (130 μM), activation peptides (tripeptide YYF or decapeptide DNRDGNVYYF, 100 μM), and lipid-A (100 μM) at 37°C in a time-dependent manner in a phosphate buffer containing 50 mM NaHPO4 (pH 7.5), 200 mM NaCl, 10% glycerol, and 4 mM EDTA. (E and F) MucA^peri/RseA^peri was cleaved by AlgW/DegS in the presence of different agonist combinations in a time-dependent manner. MucA^peri (125 μM), AlgW (25 μM), activation decapeptide SVRDELRWVF (100 μM), and lipid-A (100 μM) were incubated at 37°C in a time-dependent manner in buffer. […]

DegS = test: Rse- protease degradation assay; format: biochemical, Escherichia coli; conditions: DegS 25 μM, phosphate buffer pH 7.5, 37°C
Method: as §3

AlgW-DegS-LA (63–78) = test system: T2, AlgW-DegS-LA (63–78); test: Fluorogenic Abz-VLAG-pNA cleavage by peptide-activated AlgW and LA loop mutants (200 nM), 25 mM Tris pH 7.5, 150 mM NaCl, 37°C, Michaelis-Menten fit.; format: biochemical; conditions: n = 3
T2 construct: residues 30-389; LA loop 76-97 replaced by the corresponding region 63-78 of DegS
Method: Based on the identified MucA and MucB cleavage sites for AlgW ([6], [13]), self-quenching fluorogenic tetrapeptides derived from 134-VLAG-137 of MucA (Abz-VLAG-pNA), 211-TVAW-214 of MucB (Abz-TVAW-pNA), and alanine tetrapeptide (Abz-AAAA-pNA) were synthesized and subjected to real-time measurement of AlgW proteolytic activity in the presence of excessive peptides (10 mM) (Fig. 2A). Compared with the negative-control group (using Abz-AAAA-pNA substrate), both Abz-VLAG-pNA and Abz-TVAW-pNA could be efficiently cleaved by AlgW. […]
as §2

T1 sequence (Q9HVX1 entry or part of it): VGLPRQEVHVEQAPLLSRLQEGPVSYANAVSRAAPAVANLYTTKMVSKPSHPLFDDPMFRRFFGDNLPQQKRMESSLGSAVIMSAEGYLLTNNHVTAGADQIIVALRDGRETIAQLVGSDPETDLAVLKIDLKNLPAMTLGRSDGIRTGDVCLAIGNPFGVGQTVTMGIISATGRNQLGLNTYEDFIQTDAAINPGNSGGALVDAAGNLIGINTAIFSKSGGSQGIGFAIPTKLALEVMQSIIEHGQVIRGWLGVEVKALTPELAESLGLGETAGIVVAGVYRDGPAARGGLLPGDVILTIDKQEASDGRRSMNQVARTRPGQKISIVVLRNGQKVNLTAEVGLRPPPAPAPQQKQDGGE

CCCCCCCCCCCCO[C@@H]1O[C@H](CO)[C@@H](O[C@H]2O[C@H](CO)[C@@H](O)[C@H](O)[C@H]2O)[C@H](O)[C@H]1O [DDM, N-dodecyl-β-D-maltopyranoside]
Maximal cleavage activity (AlgW [1]; DDM gradient with 10 mM decapeptide (AlgW+Decapeptide), Tris pH 7.5, 37°C, 1 h): 717.8 ± 15.07 µM/min
Hill constants (AlgW [1]; gradient of the agonist alone): 1.43 and 1.43 ± 0.22
EC50 (AlgW [1]; gradient of the agonist alone, Tris pH 7.5, 37°C, Hill fit, three independent determinations, read-out: Half-Maximal Activation concentration): 92 ± 12.4 µM
EC50 (AlgW [2]): 92 ± 12.4 µM
MucB cleavage by AlgW (AlgW [3]): could be activated

DNRDGNVYYF
RseB cleavage by DegS (DegS; RseB 130 μM, decapeptide 100 μM): no proteolysis was noticed

CC(C)C[C@H](NC(=O)[C@@H](NC(=O)c1ccccc1N)C(C)C)C(=O)N[C@@H](C)C(=O)NCC(=O)Nc1ccc([N+](=O)[O-])cc1 [Abz-VLAG-pNA, anthraniloyl-Val-Leu-Ala-Gly-p-nitroaniline (quenched fluorogenic tetrapeptide, MucA 134-137)] (H-[2Abz]VLAG-pNA)
Km (AlgW-DegS-LA (63–78)): 12 ± 2.85 µM

lipid-A
MucB cleavage by AlgW (AlgW [3]): could be activated
RseA^peri degradation by DegS (DegS; RseA^peri 125 μM, lipid-A 100 μM with or without decapeptide DNRDGNVYYF 100 μM): did not display obvious direct or cooperative activation
